Entries after “also recorded” stand apart in the source; their conditions may differ.
What was measured:
NLRP3 = test: Neuritic NLRP3 immunoreactive spot area in hippocampal neurons, LPIA reversal paradigm; format: cell-based, rat
Description: Tissue was dissociated with a papain-based kit from Worthington Biochemical Corporation (Lakewood, NJ).
To assess all antibody-based assays, immunocytochemical methods were employed. The goals for these assays included: 1) to assess the immunoreactive area of our molecular targets (IL-1β, IL-6, GPR55, NLRPA3) with their respective primary antibodies and distinctively labeled secondary antibodies; and 2) to compare the relative responses in both neuronal cell bodies and neurites. Prior to fixation, growth medium was removed and the wells were rinsed one time with 100 μL of DPBS (37° C.). This warm rinse is particularly important to maintain structural stability of neurites. After removal of the DPBS, cultures were fixed for 20 min at room temperature with 50 μL/well of 3.5% formaldehyde (Sigma-Aldrich: 252549) in warm (37° C.) DPBS that contained 5.5 μg/mL of Hoechst 33342 dye (Invitrogen: H3570) to label cell nuclei. After removal of the fixative, the cultures were rinsed twice with 100 μL of DPBS and then a permeabilization/blocking buffer containing 5% normal goat serum and 0.3% triton-X100 in DPBS was added to the cultures for 10 min. After removal of the blocking buffer, the cultures were rinsed twice with 100 μL of DPBS and then primary antibodies were added for one-hour incubation at room temperature. Neurons were identified with antiserum to type III beta tubulin (tuj 1) to measure changes in all neuronal parameters. The primary antiserum employed was rabbit anti-rat obtained from Sigma-Aldrich (T2200) and used at 1:200 dilution. The secondary was an Alexa Fluor 488-conjugated Fab fragment of goat anti-rabbit IgG obtained from Life Technologies (A11070) used at 1:600.

GPR55 [1] = test: Cell body GPR55 immunoreactive area in DRG neurons, paclitaxel reversal paradigm, high content imaging; format: cell-based, rat
Protocol: (§1) The GPR55 antibody was obtained from abcam. […] The secondary antibodies were obtained from Life Technologies.
Responses of cell body GPR55 immunoreactive areas (μ^2) of neurons from dorsal root ganglion (DRG) cultures are shown in FIG. 2 after pretreatment with 3 μM paclitaxel for 8 hours followed by 16 hours treatment with various concentrations of KLS-13019. Reference lines are provided to depict the average cell body GPR55 area for control cultures (medium dash) and that of cultures pre-treated only with 3 μM paclitaxel (dash-dot-dash) for eight hours. […] Each value is the mean of 8 determinations. […] All assays were conducted by high content fluorescence imaging (Brenneman et al., 2018 and 2019).

human GPR55 = target: T1, human GPR55 (Homo sapiens, UniProt Q9Y2T6); test: PathHunter β-arrestin assay, human GPR55 in CHO-K1 cell line; format: cell-based
T1 construct: host or cells: CHO-K1
Protocol: In this assay, agonist-induced activation of GPR55 stimulates binding of β-arrestin to the Pro-link-tagged GPCR and forces complementation of two enzyme fragments, resulting in the formation of an active β-galactosidase enzyme. This interaction leads to an increase in enzyme activity that can be measured using chemiluminescent PathHunter detection reagents. For our application, the GPR55 agonist lysophosphatidylinositol (LPI) was tested from 0.1 nM to 30 μM to increase the relative luminescent signal relative to that of control. […] For the GPR55 antagonism assay, KLS-13019 concentrations ranging from 0.1 nM to 30 μM were tested in the presence of 16 μM LPI. Concentrations of KLS-13019 ranging from 0.1 nM to 30 μM were tested alone for possible effects of agonistic activity on β-arrestin.
A PathHunter β-arrestin assay is shown in FIG. 8 that provides a measure of an antagonist mode assessment of KLS-13019 with a human GPR55 model system (Eurofins). To measure the β-arrestin response to a GPR55 agonist, various concentrations of lysophosphatidylinositol (LPI) were used as shown in the closed circles. […] Based on these findings, 16 μM LPI was incubated with various concentrations of KLS-13019 to test for antagonistic properties (closed inverted triangles). […] All assays were conducted with an N=10.

[2] = tested on: dorsal root ganglion (DRG) cultures; test: Alamar Blue cellular viability in DRG cultures, reversal of paclitaxel toxicity; format: cell-based, rat
Protocol: (§2) At the conclusion of each experiment, sister cultures to those assessed by image analysis were evaluated with either a fluorescent dye-based assays for neuronal viability (6-carboxyfluorescein diacetate, CFDA) or with viability dye Alamar Blue. The preferred dye was Alamar Blue as this assay of viability could be conducted and then the dye washed off the cultures for subsequent fixation and follow-up immunocytochemical assays. […] In addition, a portion of the reductive conversion of resazurin to the highly fluorescent resorufin in the Alamar Blue reagent is attributable to the action of mitochondrial reductases. Because of the need for enhanced sensitivity, the Alamar Blue assay was predominantly used for these studies. Similar results in assessing pharmacological responses were obtained with both assays (see Brenneman et al, 2019).
On every plate, wells without cells were used to provide a blank reading that was used to subtract background fluorescence. For the Alamar Blue viability assay, 10 ul of the dye was added directly to the culture well that contained 100 ul of nutrient medium (Ivanov et al., 2016). Incubation times with the dye ranged from 1-5 hrs., depending on the experimental goals. Fluorescence was measured at an excitation of 530 nm and an emission of 590 on a Cytofluor plate reader.
Referring to FIG. 1, cellular viability, as measured with the viability dye Alamar Blue, is shown with relative fluorescence units (RFU) in dorsal root ganglion (DRG) cultures after treatment with 3 μM paclitaxel for 8 hours followed by 16 hours treatment with various concentrations of KLS-13019. Reference lines are provided to depict the RFU levels for control cultures (medium dash) and cultures pre-treated only with 3 μM paclitaxel (dash-dot-dash) for eight hours. […] To confirm, all treated cultures were continuously exposed to paclitaxel throughout the 24-hour duration of the experiment. […] Each value is the mean of 6 determinations.

interleukin-6 (IL-6) = test: Interleukin-6 immunoreactive area in cell bodies and neurites of DRG neurons, paclitaxel reversal paradigm; format: cell-based, rat
Protocol: as §1
(§3) Referring to FIG. 3, responses of interleukin-6 (IL-6) immunoreactive (IR) areas (μ^2) in cell bodies (open circles) and neurites (closed circles) of rat DRG neurons from dissociated cultures are shown after pretreatment with 3 μM paclitaxel for 8 hours followed by 16 hours treatment with various concentrations of KLS -13019. Reference lines are provided to depict the average cell body IL-6 area (medium dash) and neurites IL-6 (dash-dot-dash) from control cultures. The zero-concentration data point on both curves depicts values for cultures treated only with 3 μM paclitaxel. […] To confirm, all treated cultures were continuously exposed to paclitaxel throughout the 24-hour duration of the experiment. […] Each value is the mean of 8 determinations. […] All assays were conducted by high content fluorescence imaging (Brenneman et al., 2018 and 2019).

interleukin-1β (IL-1β) = test: Interleukin-1β immunoreactive area in cell bodies and neurites of DRG neurons, paclitaxel reversal paradigm; format: cell-based, rat
Protocol: as §1
as §3, with “Responses” for “Referring to FIG. 3, responses”, “interleukin-1β (IL-1β)” for “interleukin-6 (IL-6)”, “shown in FIG. 4” for “shown”, “pre-treatment” for “pretreatment”, “KLS-13019.” for “KLS -13019.”, “IL-1β” for “IL-6”

[3] = tested on: cultures of the central and peripheral nervous system; conditions: Kinney 2016; Brenneman 2018, 2019; US 9,611,213; US 10,004,722; cited from earlier work
hippocampal cultures = test: Alamar Blue cellular viability in hippocampal cultures, reversal of LPIA toxicity; format: cell-based, rat
Description: Because the scope of the anti-inflammatory actions of the 1,3-benzene diols included the central nervous system as well, hippocampal cultures were also employed as they express both mNCX-1 and GPR55, the two targets that mediate protection and inflammation, respectively. […] Poly-L-lysine-coated plates (BD Biosciences, Franklin Lakes, NJ) were used because of the preferential adherence and survival of neurons on this matrix support.
as §2, with “Similar results in assessing pharmacological responses were obtained with both assays (see Brenneman et al, 2019).” left out
On every plate, wells without cells were used to provide a blank reading that was used to subtract background fluorescence. […] Fluorescence was measured at an excitation of 530 nm and an emission of 590 on a Cytofluor plate reader. […]

GPR55 [4] = test: Neuritic GPR55 immunoreactive area in DRG cultures, 6 h co-treatment with LPIA; format: cell-based, rat
Description: Because of the recognized importance of sensory neurons in DRG to transmitting peripheral nociception (Krames, 2014) and the reported accumulation of paclitaxel in DRG from models of CIPN (Duggett et al., 2016), the preparation of choice for the in vitro studies to study protection and anti-inflammation was dissociated cultures from rat DRG. DRG cultures derived from embryonic day 18 rats were employed as the primary assay system to study KLS-13019-properties. In brief, DRG were obtained commercially through Brain Bits (Springfield, IL) and cultures prepared with slight modifications to methods previously described (Brenneman et al., 2019). Tissue was dissociated with a papain-based kit from Worthington Biochemical Corporation (Lakewood, NJ). The DRG cells were plated at low density (10,000 cells/well) in a 96-well format and maintained in serum-free medium consisting of Neurobasal Medium supplemented with B27, GlutaMAX (Gibco) and 25 ng/ml Nerve Growth Factor. Poly-D-lysine coated plates (BD Biosciences, Franklin Lakes, NJ) were employed for this culture system. Prior to the initiation of experiments between days 5 and 9 in vitro, a complete change of medium was performed in a working volume of 100 μL.
To assess all antibody-based assays, immunocytochemical methods were employed. The goals for these assays included: 1) to assess the immunoreactive area of our molecular targets (IL-1β, IL-6, GPR55, NLRPA3) with their respective primary antibodies and distinctively labeled secondary antibodies; and 2) to compare the relative responses in both neuronal cell bodies and neurites. Prior to fixation, growth medium was removed and the wells were rinsed one time with 100 μL of DPBS (37° C.). This warm rinse is particularly important to maintain structural stability of neurites. After removal of the DPBS, cultures were fixed for 20 min at room temperature with 50 μL/well of 3.5% formaldehyde (Sigma-Aldrich: 252549) in warm (37° C.) DPBS that contained 5.5 μg/mL of Hoechst 33342 dye (Invitrogen: H3570) to label cell nuclei. […]

[5] = 3 μM paclitaxel 8 h, then 16 h treatment

T1 sequence (Q9Y2T6 whole entry): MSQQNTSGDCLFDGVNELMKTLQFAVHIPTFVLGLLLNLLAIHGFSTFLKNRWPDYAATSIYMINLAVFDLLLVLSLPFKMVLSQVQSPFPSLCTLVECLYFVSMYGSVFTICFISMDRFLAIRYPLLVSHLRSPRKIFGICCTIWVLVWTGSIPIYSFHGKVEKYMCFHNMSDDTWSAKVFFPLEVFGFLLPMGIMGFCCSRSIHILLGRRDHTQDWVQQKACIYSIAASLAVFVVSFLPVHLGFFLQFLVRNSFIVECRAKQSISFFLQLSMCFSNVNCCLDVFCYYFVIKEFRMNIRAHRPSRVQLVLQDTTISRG

| Compound | NLRP3 spot areas compared with control cultures (efficacy of reversal) (NLRP3; 1 nM KLS-13019, equimolar to LPIA) | IC50 (NLRP3; Rattus norvegicus, Hippocampal neuron, 4 h, read-out: IC50 of decrease in neuritic NLRP3 area) | Reversal of paclitaxel-induced increase in cell body GPR55 area (efficacy) (GPR55 [1]; [5]) | EC50 (GPR55 [1]; Rattus norvegicus, DRG neuron, read-out: EC50 in reversing previously established increases in GPR55 area) | Agonist activity on β-arrestin, compound alone (human GPR55; 0.1 nM to 30 μM tested alone) | Antagonism of LPI-mediated increases in β-arrestin signal (human GPR55; 30 μM KLS-13019 in presence of 16 μM LPI, N=10) | Protection of DRG cells from paclitaxel toxicity (efficacy) ([2]; 3 μM paclitaxel 8 h pre-treatment, then 16 h treatment, relative to control cultures) | EC50 ([2]; Rattus norvegicus, read-out: EC50 in reversing previously established paclitaxel toxicity (Alamar Blue)) | Reversal of paclitaxel-induced increase in IL-6 IR area in cell bodies and neurites (efficacy) (interleukin-6 (IL-6); [5]) | IC50 (interleukin-6 (IL-6); Rattus norvegicus, DRG neuron, read-out: IC50 in reversing previously established increases in IL-6 IR area) | Reversal of paclitaxel-induced increase in IL-1β IR area in cell bodies and neurites (efficacy) (interleukin-1β (IL-1β); [5]) | IC50 (interleukin-1β (IL-1β); Rattus norvegicus, DRG neuron, read-out: IC50 in reversing previously established increases in IL-1β IR area) | Effect on oxidative stress and nerve cell damage in previous studies [3] | Protection of hippocampal cells from LPIA toxicity (efficacy) (hippocampal cultures; 1 nM LPIA 4 h, then 4 h treatment, relative to control cultures) | EC50 (hippocampal cultures; Rattus norvegicus, 4 h, read-out: EC50 in reversing previously established LPIA toxicity (Alamar Blue)) | IC50 (GPR55 [4]; Rattus norvegicus, 6 h, read-out: IC50 in preventing increases in GPR55 area) | Effect on LPIA-induced increase in neuritic GPR55 (GPR55 [4]; co-treatment with 1 nM LPIA, 6 hours) | Agonist signal in β-arrestin assay (human GPR55; 10 μM LPI) |
| --- | --- | --- | --- | --- | --- | --- | --- | --- | --- | --- | --- | --- | --- | --- | --- | --- | --- | --- |
| C=C(C)[C@@H]1CCC(C)=C[C@H]1c1c(O)cc(CC2CN(C(C)=O)C2)cc1O [KLS-13019, 1-(3-(3,5-dihydroxy-4-((1R,6R)-3-methyl-6-(prop-1-en-2-yl)cyclohex-2-enyl)benzyl)azetidin-1-yl)ethenone] | not different from that of control cultures | 0.129 ± 0.043 nM | fully returned to the average area of control cultures | 2.31 nM | no detectible agonist activity; also recorded: no detectible increases in β-arrestin signal | completely blocked | fully protect | 0.2 nM | fully returned to the average area of control cultures | 0.3 nM | fully restored to the average area of control cultures | 0.3 nM | prevent oxidative stress and nerve cell damage | fully protect | 0.4 nM | 0.107 ± 0.019 nM | blocked | – |
| lysophosphatidylinositol [LPI, reference compound] | – | – | – | – | – | – | – | – | – | – | – | – | – | – | – | – | – | robust and reproducible signal; also recorded: robust agonist signal |
